In data set [1] the test system is IL-6. The data set is described as follows: Cytokine induction (IL-6) after intravenous administration to mice. The class given is in vivo. Conditions: i.v., 0.5 mpk, 6 hours (Table 7). An excerpt:
The introduction of foreign material into a mammalian body induces an innate immune response that promotes cytokine production. Such immune responses to, for example, nanoparticle compositions including therapeutic and/or prophylactics, are undesirable. The induction of certain cytokines is thus measured to evaluate the […] of nanoparticle compositions. The concentrations of various cytokines in mice upon intravenous administration of nanoparticle compositions presented in Table 1A at a dosage of 0.5 mpk was measured at 6 hours. The standard MC3 formulation and a PBS control were also tested. As is evident in Table 7, IL-6 induction was highest for compositions including Compounds 1, 3, 9, 19, and 26, while IP-10 induction was highest for compositions including Compounds 3, 4, 7, 20, and 26. IL-6 induction was lowest for compositions including Compounds 4, 11, 12, and 28. IP-10 induction was lowest for compositions including Compounds 10, 11, 12, 13, 15, 17, and 18.
(§1) The expression of hEPO and cytokine induction in mice intravenously administered a nanoparticle composition at a dose of 0.5 mpk were measured at 3, 6, and 24 hours. […] The expression of hEPO in mice intramuscularly administered a nanoparticle composition from Table 1B at a dose of 0.01 mpk were measured at 3, 6, and 24 hours. […] (see also FIG. 9.)

The test system of data set [2] is hEPO mRNA expression. Nature of the data set: hEPO expression after intravenous administration to mice. The class given is in vivo. Conditions: i.v., 0.5 mpk, 3, 6 and 24 hours. Here is the method:
Sample formulations of nanoparticle compositions including different lipids are generally first evaluated according to Luc expression in vivo. The activity of several such compositions was further evaluated using an mRNA encoding hEPO. Nanoparticle compositions including Compounds 6, 18, 25, 30, 108-112, 60, and 122, or MC3 were prepared according to Example 2.
as §1

The nature of data set [3]: Encapsulation efficiency of RNA, QUANT-IT RIBOGREEN RNA assay. Format: physicochemical. Conditions: Table 1A formulations. An excerpt: The efficiency of encapsulation of a therapeutic and/or prophylactic describes the amount of therapeutic and/or prophylactic that is encapsulated or otherwise associated with a nanoparticle composition after preparation, relative to the initial amount provided. The encapsulation efficiency is desirably high (e.g., close to 100%). The encapsulation efficiency may be measured, for example, by comparing the amount of therapeutic and/or prophylactic in a solution containing the nanoparticle composition before and after breaking up the nanoparticle composition with one or more organic solvents or detergents. Fluorescence may be used to measure the amount of free therapeutic and/or prophylactic (e.g., RNA) in a solution. For the nanoparticle compositions described herein, the encapsulation efficiency of a therapeutic and/or prophylactic may be at least 50%, for example 50%, 55%, 60%, 65%, 70%, 75%, 80%, 85%, 90%, 91%, 92%, 93%, 94%, 95%, 96%, 97%, 98%, 99%, or 100%. In some embodiments, the encapsulation efficiency may be at least 80%. In certain embodiments, the encapsulation efficiency may be at least 90%.
For nanoparticle compositions including an RNA, a QUANT-IT™ RIBOGREEN® RNA assay (Invitrogen Corporation Carlsbad, Calif.) can be used to evaluate the encapsulation of an RNA by the nanoparticle composition. The samples are diluted to a concentration of approximately 5 μg/mL in a TE buffer solution (10 mM Tris-HCl, 1 mM EDTA, pH 7.5). 50 μL of the diluted samples are transferred to a polystyrene 96 well plate and either 50 μL of TE buffer or 50 μL of a 2% Triton X-100 solution is added to the wells. The plate is incubated at a temperature of 37° C. for 15 minutes. The RIBOGREEN® reagent is diluted 1:100 in TE buffer, and 100 μL of this solution is added to each well. The fluorescence intensity can be measured using a fluorescence plate reader (Wallac Victor 1420 Multilablel Counter; Perkin Elmer, Waltham, Mass.) at an excitation wavelength of, for example, about 480 nm and an emission wavelength of, for example, about 520 nm. The fluorescence values of the reagent blank are subtracted from that of each of the samples and the percentage of free RNA is determined by dividing the fluorescence intensity of the intact sample (without addition of Triton X-100) by the fluorescence value of the disrupted sample (caused by the addition of Triton X-100).

Data set [4] is described as follows: Residual lipid level in spleen of rats (UPLC-MS quantification). The class given is in vivo. Conditions: 0.2 mg/kg, rat, intravenous, 0.2 mpk.
Data set [5] in a line: Particle size, polydispersity index (and zeta potential) of nanoparticle compositions, Zetasizer Nano ZS. The class given is physicochemical. The settings on record: Table 1A formulations. An outline of the steps: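 Particle size and polydispersity index were measured by dynamic light scattering on a Zetasizer Nano ZS in 1×PBS. Zeta potential was measured in 15 mM PBS.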
Data set [6] can be described thus: Residual lipid level in liver of rats (UPLC-MS quantification). The class given is in vivo. Conditions: rat.

Consider `CCCCCCCCCOC(=O)CCCCCCCN(CCO)CCCCCCCCCC(=O)OC(CCCCCCCC)CCCCCCCC` [Compound 23, Heptadecan-9-yl 10-((2-hydroxyethyl)(8-(nonyloxy)-8-oxooctyl)amino) decanoate], for which the IL-6 in data set [1] came out at 94.00.

On to `CCCCCCCCCOC(=O)CCCCCCCN(CCO)CCCCCCCC(=O)OC(CCCCCCCC)CCCCCCCC` [Compound 18, Heptadecan-9-yl 8-((2-hydroxyethyl)(8-(nonyloxy)-8-oxooctyl)amino)octanoate], for which the “hEPO concentrations versus MC3 formulations at each time point” value in data set [2] is reported as “higher hEPO concentrations than MC3 formulations”. In addition, in data set [3], the “EE (%)” value was 97.50%. The concentration at 0.25 h stood at 1230 ng/g in data set [4] (0.25 h) and 5370 ng/g in data set [6] (liver, 0.2 mg/kg, intravenous, 0.2 mpk, 0.25 h). Further, the concentration at 0.5 h in data set [4] (0.5 h) turned out to be 2020 ng/g; in data set [6] (liver, 0.2 mg/kg, intravenous, 0.2 mpk, 0.5 h) it was 6020 ng/g. Besides, the concentration at 1 h amounted to 3210 ng/g in data set [4] (1 h) and 6050 ng/g in data set [6] (liver, 0.2 mg/kg, intravenous, 0.2 mpk, 1 h). The concentration at 2 h was determined as 3070 ng/g in data set [4] (2 h) and 2040 ng/g in data set [6] (liver, 0.2 mg/kg, intravenous, 0.2 mpk, 2 h). Moreover, the concentration at 4 h in data set [4] (4 h) came out at 3770 ng/g; in data set [6] (liver, 0.2 mg/kg, intravenous, 0.2 mpk, 4 h), 839 ng/g. In addition, the concentration at 8 h in data set [4] (8 h) was 1340 ng/g; in data set [6] (liver, 0.2 mg/kg, intravenous, 0.2 mpk, 8 h), 296 ng/g. Also, the concentration at 24 h came to 271 ng/g in data set [4] (24 h) and 5 ng/g in data set [6] (liver, 0.2 mg/kg, intravenous, 0.2 mpk, 24 h). For the same compound, the concentration at 48 h in data set [4] (48 h, read-out: Lipid level in spleen) turned out to be 92 ng/g; in data set [6] (liver, 0.2 mg/kg, intravenous, 0.2 mpk, 48 h, read-out: Lipid level in liver) it was 5370 ng/g. In addition, the PDI in data set [5] is reported as 0.042. For the same compound, the “% Lipid Remaining in liver, 48 h 2 mpk” value in data set [6] (2 mpk, 48 h, assuming 300 g rat and 15 g liver) turned out to be 0.018%.

For the origin of these results see US9868692B2, “Compounds and compositions for intracellular delivery of therapeutic agents” (MODERNATX, Inc., priority 2015, dated 2018).
